Source: patent US20230242964A1, “BIODEGRADABLE BIOCHEMICAL SENSOR FOR DETERMINING THE PRESENCE AND/OR THE LEVEL OF PESTICIDES OR ENDOCRINE DISRUPTORS: METHOD AND COMPOSITION” (priority 2018, published 2023)

Experiments:
[1] = molecular target: E. coli EPSP Synthase (Escherichia coli, UniProt P0A6D3); experiment: EPSP synthase network #2B plugged to phosphate detection
Text: The entry of the network is composed of: the EPSP synthase that uses the phospho-enol pyruvate (PEP) and the 3-phospho Shikimate to produce 5-O-(1-caroxyvinyl)-3-phosphoshikimate and inorganic phosphate.
Then 2 different networks have been tested: • One that converts the inorganic phosphate (Pi): Pi is combined with Inosine in the presence of the purine nucleoside phosphorylase to give Hypoxanthine. The Hypoxantine lead to Xanthine and H2O2 in the presence of Xanthine Oxidase. The Horseradish peroxidase uses the H2O2 to convert the O-dianisidine or the Amplex Red and give a colorimetric or fluorimetric signal detectable.
First, the network has been tested in liquid buffer without vesicle or gel. […] Reaction was followed for 1 hour at 25° C. by registering the absorbance at 450 nm on a spectrophotometer. • One that converts the 5-O-(1-caroxyvinyl)-3-phosphoshikimate produced by the EPSP synthase: 5-O-(1-caroxyvinyl)-3-phosphoshikimate is metabolized by the Chorismate Synthase to give chorismate. This Chorismate is then transformed in pyruvate by the chorismate Lyase. Finaly the pyruvate is used by the Lactate dehydrogenase in the presence of NADH to give lactate and NAD+. The NADH consumption is followed by the change of fluorescence emission at 445 nm (Excitation at 340 nm)—or change of absorbance at 340 nm on a spectrophotometer. • 3.
The reaction was followed by the change of fluorescence on a fluorimeter (Excitation at 530 nm/Emission at 590 nm) or by the change of absorbance at 450 nm on a spectrophotometer. It allowed us to determine the activity of the EPSP synthase toward Phosphoenol Pyruvate (PEP).

[2] = tested on: BliGO SCF4 mutant; conditions: cited from earlier work
[3] = molecular target: T1, Bacillus subtilis H244K Glycine/Glyphosate oxidase (Bacillus subtilis, UniProt O31616, H244K); experiment: Glycine biochemical network #3, Amplex red/HRP fluorescence and colorimetric readout; conditions: glyphosate at 100 μM, Tris buffer 50 mM pH 7,5
T1 construct: purchased Creative enzyme NATE-1674
T1 sequence (O31616 whole entry H244K): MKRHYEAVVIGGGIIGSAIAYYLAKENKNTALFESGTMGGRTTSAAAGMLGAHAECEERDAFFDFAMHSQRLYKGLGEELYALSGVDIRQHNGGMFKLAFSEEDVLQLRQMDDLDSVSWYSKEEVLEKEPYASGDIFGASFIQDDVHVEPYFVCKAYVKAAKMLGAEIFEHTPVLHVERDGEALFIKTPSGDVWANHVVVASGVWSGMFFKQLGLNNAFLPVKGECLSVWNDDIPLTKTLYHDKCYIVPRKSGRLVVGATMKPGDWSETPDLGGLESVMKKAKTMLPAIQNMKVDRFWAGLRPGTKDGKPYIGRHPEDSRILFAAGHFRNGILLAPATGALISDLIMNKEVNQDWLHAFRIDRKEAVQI
Text: It allowed us to detect the glycine.

E. coli EPSP Synthase, sequence (P0A6D3 whole entry): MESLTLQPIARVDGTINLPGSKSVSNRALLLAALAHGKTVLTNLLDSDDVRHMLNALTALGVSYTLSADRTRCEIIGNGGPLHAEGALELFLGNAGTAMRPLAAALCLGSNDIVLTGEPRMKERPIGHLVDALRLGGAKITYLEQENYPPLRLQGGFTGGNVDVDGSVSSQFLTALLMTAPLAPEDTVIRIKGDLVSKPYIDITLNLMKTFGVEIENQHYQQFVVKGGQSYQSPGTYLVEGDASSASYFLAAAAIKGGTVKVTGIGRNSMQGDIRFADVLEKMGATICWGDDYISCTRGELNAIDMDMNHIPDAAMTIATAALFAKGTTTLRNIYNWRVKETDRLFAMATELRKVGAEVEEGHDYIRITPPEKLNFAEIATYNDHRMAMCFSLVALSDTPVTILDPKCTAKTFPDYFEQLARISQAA

## C=C(OP(=O)(O)O)C(=O)O [PEP, phosphoenolpyruvate]
[1]; 50 mM Hepes pH 7, 25° C.
  EPSP affinity for PEP: 14 µM
  Vmax of EPSP synthase toward PEP: 1.026e-08 mol/L/s

## NCC(=O)O [glycine]
[2]; BliGO SCF4 mutant vs WT
  decrease of activity to glycine compared to WT: 113 fold

## O=C(O)CNCP(=O)(O)O [glyphosate]
[1]; glyphosate 0 to 2 mM, concentration dependent
  effect on the EPSP synthase: inhibitory effect
[2]; BliGO SCF4 mutant vs WT
  increase of affinity toward glyphosate compared to WT: 8 fold
[2]; BliGO SCF4 mutant
  affinity toward glyphosate: 1.58 mM
[3]
  detection by network #3: absence of detection
